# Activity calls are given as the source filed them. The calls are words filed in the database; no cut-off is given here.
# Experiments:
# [1] = biological target: Dual serine/threonine and tyrosine protein kinase (Homo sapiens) (UniProt Q6XUX3); details: Compound concentration 1000.0 nM
# [2] = biological target: Serine/threonine-protein kinase 26 (Homo sapiens) (UniProt Q9P289); details: Compound concentration 1000.0 nM
# [3] = biological target: Death-associated protein kinase 3 (Homo sapiens) (UniProt O43293); details: Compound concentration 1000.0 nM
# [4] = biological target: Ephrin type-A receptor 8 (Homo sapiens) (UniProt P29322); details: Compound concentration 1000.0 nM
# [5] = biological target: 3',5'-cyclic-AMP phosphodiesterase 4A (Homo sapiens) (UniProt P27815); assay: PDE-IV/HU Eurofins-Panlabs selectivity data (BI); details: Compound concentration 10.0 uM
# [6] = biological target: 5-hydroxytryptamine receptor 4 (Cavia porcellus) (UniProt O70528); assay: 5HT4/GPIG Eurofins-Panlabs selectivity data (BI); details: Compound concentration 10.0 uM
# [7] = biological target: Tyrosine-protein kinase SYK (Homo sapiens) (UniProt P43405); details: Compound concentration 1000.0 nM
# [8] = biological target: Tyrosine-protein kinase Fyn (Homo sapiens) (UniProt P06241); details: Compound concentration 1000.0 nM
# [9] = biological target: Protein-tyrosine kinase 2-beta (Homo sapiens) (UniProt Q14289); details: Compound concentration 1000.0 nM
# [10] = biological target: Receptor tyrosine-protein kinase erbB-2 (Homo sapiens) (UniProt P04626); details: Compound concentration 1000.0 nM
# [11] = biological target: Sodium/potassium-transporting ATPase subunit alpha-1 (Sus scrofa) (UniProt P05024); assay: ATP NA+/K+PI Eurofins-Panlabs selectivity data (BI); details: Compound concentration 10.0 uM
# [12] = biological target: Dual specificity mitogen-activated protein kinase kinase 2 (Homo sapiens) (UniProt P36507); details: Compound concentration 1000.0 nM
# [13] = biological target: STE20/SPS1-related proline-alanine-rich protein kinase (Homo sapiens) (UniProt Q9UEW8); details: Compound concentration 1000.0 nM
# [14] = biological target: Serine/threonine-protein kinase SIK3 (Homo sapiens) (UniProt Q9Y2K2); details: Compound concentration 1000.0 nM
# [15] = biological target: Phospholipase A2 (Sus scrofa) (UniProt A0A8D1VEY7); assay: PLA2 Eurofins-Panlabs selectivity data (BI); details: Compound concentration 10.0 uM
# [16] = biological target: Receptor-interacting serine/threonine-protein kinase 1 (Homo sapiens) (UniProt Q13546); details: Compound concentration 1000.0 nM
# [17] = biological target: Casein kinase I isoform gamma-1 (Homo sapiens) (UniProt Q9HCP0); details: Compound concentration 1000.0 nM
# [18] = tested on: GABA-B receptor (GABBR1, rat); assay: GABAB/RA Eurofins-Panlabs selectivity data (BI); details: Compound concentration 10.0 uM
# [19] = biological target: Mitogen-activated protein kinase kinase kinase 20 (Homo sapiens) (UniProt Q9NYL2); details: Compound concentration 1000.0 nM
# [20] = biological target: Mitogen-activated protein kinase 11 (Homo sapiens) (UniProt Q15759); details: Compound concentration 1000.0 nM
# [21] = biological target: Histamine H1 receptor (Homo sapiens) (UniProt P35367); details: Compound concentration 10.0 uM
# [22] = biological target: D(4) dopamine receptor (Homo sapiens) (UniProt P21917); details: Compound concentration 10.0 uM
# [23] = biological target: Tyrosine-protein kinase ITK/TSK (Homo sapiens) (UniProt Q08881); details: Compound concentration 1000.0 nM
# [24] = biological target: Protein kinase C eta type (Homo sapiens) (UniProt P24723); details: Compound concentration 1000.0 nM
# [25] = biological target: Serine/threonine-protein kinase PAK 4 (Homo sapiens) (UniProt O96013); details: Compound concentration 1000.0 nM
# [26] = biological target: Serine/threonine-protein kinase WNK1 (Homo sapiens) (UniProt Q9H4A3); details: Compound concentration 1000.0 nM
# [27] = biological target: NUAK family SNF1-like kinase 1 (Homo sapiens) (UniProt O60285); details: Compound concentration 1000.0 nM
# [28] = biological target: Dual specificity testis-specific protein kinase 1 (Homo sapiens) (UniProt Q15569); details: Compound concentration 1000.0 nM
# [29] = biological target: Protein kinase C theta type (Homo sapiens) (UniProt Q04759); details: Compound concentration 1000.0 nM
# [30] = biological target: Serine/threonine-protein kinase 16 (Homo sapiens) (UniProt O75716); details: Compound concentration 1000.0 nM
# [31] = biological target: T1, Bifunctional epoxide hydrolase 2 (Homo sapiens, UniProt P34913); assay: Cellular assay
# T1 sequence (P34913 whole entry): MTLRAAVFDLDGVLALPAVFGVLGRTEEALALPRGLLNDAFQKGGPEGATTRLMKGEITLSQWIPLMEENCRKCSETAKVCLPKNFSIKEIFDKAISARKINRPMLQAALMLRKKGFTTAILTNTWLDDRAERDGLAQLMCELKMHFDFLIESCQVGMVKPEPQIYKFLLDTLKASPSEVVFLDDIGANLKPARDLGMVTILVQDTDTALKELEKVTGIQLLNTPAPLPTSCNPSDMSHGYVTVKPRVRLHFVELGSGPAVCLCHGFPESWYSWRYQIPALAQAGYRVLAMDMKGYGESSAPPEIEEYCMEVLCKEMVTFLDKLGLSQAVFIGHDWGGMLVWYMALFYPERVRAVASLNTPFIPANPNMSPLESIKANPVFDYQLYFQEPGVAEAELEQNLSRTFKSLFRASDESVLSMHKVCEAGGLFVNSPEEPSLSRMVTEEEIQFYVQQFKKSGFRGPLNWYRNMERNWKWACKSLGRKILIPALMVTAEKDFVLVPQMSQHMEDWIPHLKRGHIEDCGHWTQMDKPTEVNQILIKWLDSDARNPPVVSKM
# [32] = biological target: BMP-2-inducible protein kinase (Homo sapiens) (UniProt Q9NSY1); details: Compound concentration 1000.0 nM
# [33] = biological target: Ribosomal protein S6 kinase alpha-6 (Homo sapiens) (UniProt Q9UK32); details: Compound concentration 1000.0 nM
# [34] = biological target: Mitogen-activated protein kinase kinase kinase 5 (Homo sapiens) (UniProt Q99683); details: Compound concentration 1000.0 nM
# [35] = biological target: Citron Rho-interacting kinase (Homo sapiens) (UniProt O14578); details: Compound concentration 1000.0 nM
# [36] = biological target: Serine/threonine-protein kinase PLK1 (Homo sapiens) (UniProt P53350); details: Compound concentration 1000.0 nM
# [37] = biological target: Cyclin-dependent kinase 19 (Homo sapiens) (UniProt Q9BWU1); details: Compound concentration 1000.0 nM
# [38] = biological target: Inhibitor of nuclear factor kappa-B kinase subunit beta (Homo sapiens) (UniProt O14920); details: Compound concentration 1000.0 nM
# Protein-tyrosine kinase 2-beta (Homo sapiens), sequence (Q14289 whole entry, looked up): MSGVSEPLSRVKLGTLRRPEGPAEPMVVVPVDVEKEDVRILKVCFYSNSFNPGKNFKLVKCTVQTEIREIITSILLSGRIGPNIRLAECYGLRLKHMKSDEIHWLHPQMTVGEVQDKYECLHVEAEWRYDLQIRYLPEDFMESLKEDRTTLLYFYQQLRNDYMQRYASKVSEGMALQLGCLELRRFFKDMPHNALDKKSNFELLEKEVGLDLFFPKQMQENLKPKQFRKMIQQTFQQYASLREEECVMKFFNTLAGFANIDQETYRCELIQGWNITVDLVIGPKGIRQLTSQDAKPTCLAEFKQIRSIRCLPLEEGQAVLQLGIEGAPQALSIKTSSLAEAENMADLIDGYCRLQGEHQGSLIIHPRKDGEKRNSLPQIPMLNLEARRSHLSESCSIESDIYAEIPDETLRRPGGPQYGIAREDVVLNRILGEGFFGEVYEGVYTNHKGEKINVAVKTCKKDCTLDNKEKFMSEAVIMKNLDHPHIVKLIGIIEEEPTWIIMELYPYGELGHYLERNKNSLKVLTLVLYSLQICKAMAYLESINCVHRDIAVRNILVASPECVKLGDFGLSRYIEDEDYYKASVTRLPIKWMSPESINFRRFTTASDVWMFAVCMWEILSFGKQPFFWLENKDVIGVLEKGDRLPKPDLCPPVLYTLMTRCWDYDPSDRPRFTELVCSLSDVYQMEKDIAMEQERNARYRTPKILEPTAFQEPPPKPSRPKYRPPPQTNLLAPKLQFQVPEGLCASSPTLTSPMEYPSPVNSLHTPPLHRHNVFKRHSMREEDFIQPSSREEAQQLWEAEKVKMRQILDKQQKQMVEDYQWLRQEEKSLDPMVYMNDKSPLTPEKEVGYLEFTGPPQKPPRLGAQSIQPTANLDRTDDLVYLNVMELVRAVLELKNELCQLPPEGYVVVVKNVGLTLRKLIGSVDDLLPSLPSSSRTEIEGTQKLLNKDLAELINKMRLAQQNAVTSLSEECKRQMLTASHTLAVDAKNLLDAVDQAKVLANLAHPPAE
# Ephrin type-A receptor 8 (Homo sapiens), sequence (P29322 whole entry): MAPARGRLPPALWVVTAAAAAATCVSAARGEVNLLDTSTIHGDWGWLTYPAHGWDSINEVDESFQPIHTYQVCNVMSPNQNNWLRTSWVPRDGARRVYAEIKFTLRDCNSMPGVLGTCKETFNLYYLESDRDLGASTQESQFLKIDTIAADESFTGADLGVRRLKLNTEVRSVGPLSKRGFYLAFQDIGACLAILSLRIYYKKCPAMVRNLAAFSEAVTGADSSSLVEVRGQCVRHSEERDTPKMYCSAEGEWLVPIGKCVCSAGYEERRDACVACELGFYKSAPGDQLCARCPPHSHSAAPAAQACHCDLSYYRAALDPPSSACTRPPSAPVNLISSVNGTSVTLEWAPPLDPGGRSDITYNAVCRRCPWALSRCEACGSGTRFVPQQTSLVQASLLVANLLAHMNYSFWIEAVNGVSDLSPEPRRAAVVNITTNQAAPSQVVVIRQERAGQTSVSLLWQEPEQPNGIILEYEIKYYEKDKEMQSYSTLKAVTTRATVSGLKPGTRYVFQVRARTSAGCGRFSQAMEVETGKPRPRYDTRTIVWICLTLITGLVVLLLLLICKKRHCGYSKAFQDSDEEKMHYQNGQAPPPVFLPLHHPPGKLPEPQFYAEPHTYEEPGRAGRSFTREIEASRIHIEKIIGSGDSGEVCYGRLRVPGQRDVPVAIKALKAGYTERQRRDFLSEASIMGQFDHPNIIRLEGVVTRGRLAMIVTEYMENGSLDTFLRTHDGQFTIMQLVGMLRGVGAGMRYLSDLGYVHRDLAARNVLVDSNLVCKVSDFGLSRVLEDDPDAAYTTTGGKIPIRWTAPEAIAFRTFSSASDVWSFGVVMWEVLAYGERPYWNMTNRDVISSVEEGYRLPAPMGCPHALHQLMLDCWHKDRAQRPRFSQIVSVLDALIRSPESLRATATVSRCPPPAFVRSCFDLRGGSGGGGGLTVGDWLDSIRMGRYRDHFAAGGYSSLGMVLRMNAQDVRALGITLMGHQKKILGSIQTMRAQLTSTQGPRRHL
# D(4) dopamine receptor (Homo sapiens), sequence (P21917 whole entry): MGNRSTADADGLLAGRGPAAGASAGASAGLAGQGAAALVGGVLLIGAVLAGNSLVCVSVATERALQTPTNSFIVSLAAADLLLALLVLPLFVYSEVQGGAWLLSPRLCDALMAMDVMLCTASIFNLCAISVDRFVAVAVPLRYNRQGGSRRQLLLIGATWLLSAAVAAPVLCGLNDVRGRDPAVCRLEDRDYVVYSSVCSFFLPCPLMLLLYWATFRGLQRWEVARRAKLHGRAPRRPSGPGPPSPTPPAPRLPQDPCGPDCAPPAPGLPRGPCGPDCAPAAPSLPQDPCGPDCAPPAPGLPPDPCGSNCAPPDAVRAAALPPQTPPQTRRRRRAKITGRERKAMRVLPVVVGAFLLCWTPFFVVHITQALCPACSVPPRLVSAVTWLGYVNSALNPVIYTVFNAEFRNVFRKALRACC
# Serine/threonine-protein kinase 26 (Homo sapiens), sequence (Q9P289 2-416 limits assumed): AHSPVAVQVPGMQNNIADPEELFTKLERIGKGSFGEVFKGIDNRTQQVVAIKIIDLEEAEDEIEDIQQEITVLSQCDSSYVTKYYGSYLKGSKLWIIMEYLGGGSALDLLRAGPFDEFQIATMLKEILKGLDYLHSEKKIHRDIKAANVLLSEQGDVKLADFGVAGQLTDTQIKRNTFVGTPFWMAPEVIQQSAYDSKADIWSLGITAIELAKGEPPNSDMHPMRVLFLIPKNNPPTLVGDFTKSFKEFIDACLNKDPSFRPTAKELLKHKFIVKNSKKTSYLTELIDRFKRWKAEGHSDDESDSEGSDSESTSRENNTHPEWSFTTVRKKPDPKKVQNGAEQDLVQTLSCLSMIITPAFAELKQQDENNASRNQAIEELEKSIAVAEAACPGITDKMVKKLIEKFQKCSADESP
# Tyrosine-protein kinase Fyn (Homo sapiens), sequence (P06241 2-537 limits assumed): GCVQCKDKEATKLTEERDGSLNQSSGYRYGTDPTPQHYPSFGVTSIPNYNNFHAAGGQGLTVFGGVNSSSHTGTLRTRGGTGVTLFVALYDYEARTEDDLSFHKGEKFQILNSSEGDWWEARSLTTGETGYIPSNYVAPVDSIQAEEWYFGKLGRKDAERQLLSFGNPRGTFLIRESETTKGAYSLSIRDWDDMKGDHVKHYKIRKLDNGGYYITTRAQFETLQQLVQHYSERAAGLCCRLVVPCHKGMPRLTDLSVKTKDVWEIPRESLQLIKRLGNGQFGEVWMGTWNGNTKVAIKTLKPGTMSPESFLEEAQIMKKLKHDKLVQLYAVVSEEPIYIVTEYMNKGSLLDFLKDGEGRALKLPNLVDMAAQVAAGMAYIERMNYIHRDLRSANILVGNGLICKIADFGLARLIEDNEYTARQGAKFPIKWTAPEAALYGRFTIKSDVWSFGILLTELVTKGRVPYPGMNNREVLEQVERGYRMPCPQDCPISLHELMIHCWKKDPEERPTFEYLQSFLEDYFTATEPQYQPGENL
# 3',5'-cyclic-AMP phosphodiesterase 4A (Homo sapiens), sequence (P27815 whole entry): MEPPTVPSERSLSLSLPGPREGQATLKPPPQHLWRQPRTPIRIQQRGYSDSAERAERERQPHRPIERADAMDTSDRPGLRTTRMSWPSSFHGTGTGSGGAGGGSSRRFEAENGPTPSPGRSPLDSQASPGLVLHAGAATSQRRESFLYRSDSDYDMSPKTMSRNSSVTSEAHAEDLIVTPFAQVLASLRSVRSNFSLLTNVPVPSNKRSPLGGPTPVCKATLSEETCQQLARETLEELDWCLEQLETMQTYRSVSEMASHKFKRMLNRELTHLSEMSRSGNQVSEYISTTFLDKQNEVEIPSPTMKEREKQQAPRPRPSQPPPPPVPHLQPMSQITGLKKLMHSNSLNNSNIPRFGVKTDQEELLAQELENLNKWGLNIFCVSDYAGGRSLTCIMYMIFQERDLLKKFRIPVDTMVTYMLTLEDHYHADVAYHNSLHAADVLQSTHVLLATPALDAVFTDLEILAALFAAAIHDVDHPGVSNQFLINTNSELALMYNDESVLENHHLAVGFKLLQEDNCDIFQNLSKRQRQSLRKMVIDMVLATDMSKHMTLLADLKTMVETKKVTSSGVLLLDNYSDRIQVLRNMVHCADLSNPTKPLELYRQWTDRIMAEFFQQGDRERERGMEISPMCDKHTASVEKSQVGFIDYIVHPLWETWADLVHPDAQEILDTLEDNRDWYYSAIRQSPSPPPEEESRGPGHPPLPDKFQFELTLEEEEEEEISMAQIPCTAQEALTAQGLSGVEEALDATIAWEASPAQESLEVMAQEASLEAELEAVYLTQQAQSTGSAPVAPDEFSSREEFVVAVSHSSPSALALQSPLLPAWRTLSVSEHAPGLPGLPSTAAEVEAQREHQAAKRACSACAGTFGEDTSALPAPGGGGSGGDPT
# NUAK family SNF1-like kinase 1 (Homo sapiens), sequence (O60285 whole entry): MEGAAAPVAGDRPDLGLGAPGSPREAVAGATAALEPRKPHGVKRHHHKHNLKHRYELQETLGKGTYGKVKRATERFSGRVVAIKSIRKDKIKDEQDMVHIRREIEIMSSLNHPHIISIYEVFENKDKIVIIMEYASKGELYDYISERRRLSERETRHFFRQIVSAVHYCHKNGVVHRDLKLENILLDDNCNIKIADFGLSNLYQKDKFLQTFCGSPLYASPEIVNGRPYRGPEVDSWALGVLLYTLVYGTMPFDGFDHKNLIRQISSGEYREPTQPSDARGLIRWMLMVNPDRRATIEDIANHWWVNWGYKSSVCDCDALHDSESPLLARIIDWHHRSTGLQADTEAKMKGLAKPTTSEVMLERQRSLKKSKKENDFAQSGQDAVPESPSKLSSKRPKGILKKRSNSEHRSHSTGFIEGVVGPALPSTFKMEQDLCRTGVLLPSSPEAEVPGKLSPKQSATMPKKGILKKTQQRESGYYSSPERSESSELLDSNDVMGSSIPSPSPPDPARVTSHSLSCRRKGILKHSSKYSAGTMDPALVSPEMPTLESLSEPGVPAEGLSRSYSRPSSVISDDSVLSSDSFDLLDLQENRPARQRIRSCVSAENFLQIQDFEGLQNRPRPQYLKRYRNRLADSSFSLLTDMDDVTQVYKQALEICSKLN
compound,measurement,setting,value
CCOCCn1cc(C(=O)Nc2ccc(-n3nc(-c4cccnc4)cc3C(F)(F)F)cn2)ccc1=O [BI 1935],residual activity,[1],61%
same,residual activity,[2],81%
same,residual activity,[3],91%
same,residual activity,[4],84%
same,residual activity,[5],86%
same,residual activity,[6],103%
same,residual activity,[7],100%
same,residual activity,[8],53%
same,residual activity,[9],100%
same,residual activity,[10],100%
same,residual activity,[11],94%
same,residual activity,[12],94%
same,residual activity,[13],100%
same,residual activity,[14],92%
same,residual activity,[15],96%
same,residual activity,[16],88%
same,residual activity,[17],100%
same,residual activity,[18],94%
same,residual activity,[19],73%
same,residual activity,[20],80%
same,inhibition,[21],12.2%
same,inhibition,[22],-3.89%
same,residual activity,[23],83%
same,residual activity,[24],100%
same,residual activity,[25],100%
same,residual activity,[26],82%
same,residual activity,[27],100%
same,residual activity,[28],85%
same,residual activity,[29],73%
same,residual activity,[30],92%
same,IC50,[31],< 1 nM (active)
same,residual activity,[32],95%
same,residual activity,[33],81%
same,residual activity,[34],100%
same,residual activity,[35],97%
same,residual activity,[36],100%
same,residual activity,[37],95%
same,residual activity,[38],100%

# Reference: ChEMBL document CHEMBL4507283, “Data for DCP probe BI-1935” (2021)
